Test results from patent publication US20120225119A1, “THERAPEUTIC COMBINATION FOR PAINFUL MEDICAL CONDITIONS” (UCB Pharma GmbH, priority 2005, published 2012).
Entries after “also recorded” stand apart in the source; their conditions may differ.

Legend:
[1] = test system: TNF-induced reduction of grip strength; assay: Biceps muscle grip strength after TNF-induced muscle pain; type: in vivo, rat
Protocol: (§1) Adult male Sprague Dawley rats with a body weight of 250 g to 300 g were used (supplier: Charles River, Sulzfeld, Germany). Animals were group-housed (3 animals per cage) and maintained in a room with controlled temperature (21-22° C.) and a reversed light-dark cycle (12 h/12 h) with food and water available ad libitum. All experiments were approved by the Bavarian State animal experimentation committee and carried out in accordance with its regulations.
(§2) Recombinant rat tumor necrosis factor alpha (herein referred to as TNF) was obtained from R&D Systems, Minneapolis, Minn., U.S.A. TNF was diluted in 0.9% NaCl and used in a concentration of 1 μg in 50 μl. Injections were performed in short halothane narcosis with a 30 g needle bilaterally into the gastrocnemius or into the biceps brachii muscle. All rats were used to the behavioral tests before injections and baseline values were recorded over three test days.
Grip strength of the forelimbs was tested with a digital grip force meter (DFIS series, Chatillon, Greensboro, N.C., U.S.A.). The rat was positioned to grab the grid with the forelimbs and was gently pulled so that the grip strength could be recorded. Means of three trials were calculated. The effect of the TNF treatment was calculated for each animal separately and only animals with a significant TNF effect were included for further analysis.
Rats were injected with TNF into the biceps brachii muscle at 8 am. Six hours later, grip strength of the forelimbs was tested with a digital grip force meter. Test drug was administered, and grip strength was again tested after 30 to 60 minutes.
(§3) The rats, initially 10 per group, were treated with either 3, 10 or 30 mg/kg lacosamide, 2 mg/kg metamizol, 30 or 100 mg/kg pregabalin, 100 mg/kg gabapentin, or the NaCl vehicle, i.p. (intraperitoneally). Volume of i.p. injections was 0.5 ml. A pilot study was performed to confirm that i.m. (intramuscular) injection of 1 μg TNF into the gastrocnemius muscle was sufficient to induce pressure hyperalgesia.
(§4) Data are shown in graphs displaying means and standard errors of the means (SEM). Pre- and post-treatment data were compared using ANOVA (analysis of variance) and a Tukey post hoc test. Means of treatment groups were compared using a one-way ANOVA and Dunnett's post hoc test. Maximal possible effects (MPE) were calculated for all types of treatment.

[2] = test system: muscle pressure hyperalgesia induced by TNF; assay: Withdrawal threshold to muscle pressure (Randall-Selitto) after TNF injection into gastrocnemius muscle; type: in vivo, rat; details: for full reversal of the muscle hyperalgesia: pregabalin 30 and 100 mg/kg
Protocol: as §1, §2
Mechanical withdrawal thresholds to muscle pressure were measured with an analgesimeter (Ugo Basile, Comerio, Italy). The rat was allowed to crawl into a sock which helps the rat to relax. The hind limbs were positioned such that an increasing pressure could be applied onto the gastrocnemius muscle (maximum 250 g). The pressure needed to elicit withdrawal was recorded. Means of 3 trials for each hind limb were calculated (interstimulus interval of >30 sec). Only animals with a significant TNF effect were included for further analysis.
Rats were injected with TNF into the gastrocnemius muscle at 2 pm. Eighteen hours later, rats were tested for pressure hyperalgesia pre- and post-administration of the test drug. Rats were tested for pressure hyperalgesia 30 to 60 minutes after drug administration.
as §3, §4

[3] = test system: monosodium iodoacetate-induced tactile allodynia; assay: Tactile allodynia (von Frey filaments) in iodoacetate rat model of osteoarthritis; type: in vivo; details: day 3 and day 7
[4] = test system: formalin-induced flinching and licking of the affected paw; assay: Rat formalin paw test (late phase); type: in vivo; details: for effect on time spent licking: lacosamide 10 mg/kg i.p.
Protocol: Rats were given an intraplantar injection of 5% formalin (50 μl) into the posterior left paw. This treatment induces a recognizable flinching and licking response of the affected paw in control animals. The number of flinches was counted for 15 minutes, beginning 20 minutes after injection of formalin. The time spent licking the affected paw was also recorded.
Male Rj: Wistar (Han) rats, 10 per group, weighing 100-130 g at the beginning of the experiments were studied per group. The test was performed blind. […]
Lacosamide (10 and 20 mg/kg), memantine (4 and 8 mg/kg), combinations of lacosamide (10 and 20 mg/kg) with memantine (4 and 8 mg/kg), and vehicle were administered i.p. 10 minutes before injection of formalin.
Lacosamide (10 and 20 mg/kg), naproxen (8 and 16 mg/kg), combinations of lacosamide (10 and 20 mg/kg) with […] (8 and 16 mg/kg), and vehicle were administered i.p. 10 minutes before injection of formalin. Morphine (8 mg/kg) was included as a comparative treatment.

[5] = test system: monosodium iodoacetate-induced mechanical hyperalgesia; assay: Mechanical hyperalgesia (Randall-Selitto paw pressure) in iodoacetate rat model of osteoarthritis; type: in vivo; details: for paw pressure withdrawal threshold compared to iodoacetate/vehicle treated animals: day 3
[6] = lacosamide 10 and 30 mg/kg i.p.
[7] = pregabalin 30 and 100 mg/kg i.p.

NCC1(CC(=O)O)CCCCC1 [Gabapentin]
MPE (maximal possible effect) on biceps muscle grip strength, FIG. 4 ([1]; 100 mg/kg i.p.): significantly different from vehicle
reversal of TNF-induced reduction of grip strength ([1]; 100 mg/kg i.p.): significant reversal; also recorded: improved grip strength
MPE (maximal possible effect) on muscle pressure hyperalgesia, FIG. 2 ([2]; gabapentin 100 mg/kg i.p.): significantly different from vehicle
reversal of muscular mechanical hyperalgesia (withdrawal threshold to muscle pressure) ([2]; gabapentin 100 mg/kg i.p.): significant reversal
full reversal of the muscle hyperalgesia ([2]; gabapentin 100 mg/kg i.p.): Neither pregabalin nor gabapentin led to a full reversal

COC[C@@H](NC(C)=O)C(=O)NCc1ccccc1 [Lacosamide, (R)-2-acetamido-N-benzyl-3-methoxypropionamide]
grip strength test indicative of mechanical allodynia ([1]; lacosamide 10 mg/kg i.p.): reversed the effect of TNF
MPE (maximal possible effect) on biceps muscle grip strength, FIG. 4 [1, 6]: significantly different from vehicle
reversal of TNF-induced reduction of grip strength [1, 6]: significant reversal
tactile allodynia of iodoacetate-treated rats ([3]; lacosamide 30 mg/kg p.o.): improved
effect on time spent licking ([4]; Example 6): no clear effects
effect on time spent licking ([4]; Example 7): no clear effects
effect on number of flinches as compared with vehicle controls ([4]; Example 7, lacosamide 10 and 20 mg/kg i.p.): did not clearly affect
paw pressure withdrawal threshold compared to iodoacetate/vehicle treated animals ([5]; lacosamide 3 mg/kg p.o.): increase in paw pressure withdrawal threshold
mechanical hyperalgesia ([5]; lacosamide 10 mg/kg p.o., day 14): did not show a statistically significant effect
mechanical hyperalgesia ([5]; lacosamide at all doses tested (3, 10 and 30 mg/kg p.o.), day 7): reduced mechanical hyperalgesia
mechanical hyperalgesia during the post-inflammatory period ([5]; lacosamide p.o.): inhibited mechanical hyperalgesia
reversal of muscular mechanical hyperalgesia (withdrawal threshold to muscle pressure) ([2]; lacosamide 30 mg/kg i.p., 30 to 60 minutes after drug): complete reversal; also recorded: full reversal
muscle hyperalgesia induced by TNF injection in the paw pressure test ([2]; lacosamide 3, 10 and 30 mg/kg i.p.): dose-dependently improved
MPE (maximal possible effect) on muscle pressure hyperalgesia, FIG. 2 [2, 6]: significantly different from vehicle

CC12CC3CC(C)(C1)CC(N)(C3)C2 [Memantine]
effect on number of flinches as compared with vehicle controls ([4]; Example 6, memantine 4 and 8 mg/kg i.p.): did not clearly affect

CN1CC[C@]23c4c5ccc(O)c4O[C@H]2[C@@H](O)C=C[C@H]3[C@H]1C5 [Morphine]
tactile allodynia of iodoacetate-treated rats ([3]; morphine 3 mg/kg s.c.): improved
effect on number of flinches and time spent licking as compared with vehicle controls ([4]; Example 4, morphine 2 and 4 mg/kg i.p., effects did not reach statistical significance): dose-dependently decreased
effect on flinching and time spent licking as compared with vehicle controls ([4]; Example 7, morphine 8 mg/kg i.p.): eliminated flinching and the time spent licking
paw pressure withdrawal threshold compared to iodoacetate/vehicle treated animals ([5]; morphine 3 mg/kg s.c.): increase in paw pressure withdrawal threshold
mechanical hyperalgesia ([5]; morphine 3 mg/kg s.c., day 7): reduced mechanical hyperalgesia

COc1ccc2cc([C@H](C)C(=O)O)ccc2c1 [Naproxen]
effect on number of flinches or time spent licking as compared with vehicle controls ([4]; Example 7, naproxen 8 and 16 mg/kg i.p.): did not clearly affect

O=C(O)Cc1ccccc1Nc1c(Cl)cccc1Cl [diclofenac]
paw pressure withdrawal threshold compared to iodoacetate/vehicle treated animals ([5]; diclofenac 30 mg/kg s.c.): increase in paw pressure withdrawal threshold
mechanical hyperalgesia ([5]; diclofenac 30 mg/kg s.c., day 7): reduced mechanical hyperalgesia

Cc1c(N(C)CS(=O)(=O)[O-])c(=O)n(-c2ccccc2)n1C.[Na+] [metamizol]
MPE (maximal possible effect) on biceps muscle grip strength, FIG. 4 ([1]; metamizol 2 mg/kg i.p.): significantly different from vehicle
reversal of TNF-induced reduction of grip strength ([1]; metamizol 2 mg/kg i.p.): significant reversal
MPE (maximal possible effect) on muscle pressure hyperalgesia, FIG. 2 ([2]; metamizol 2 mg/kg i.p.): significantly different from vehicle
reversal of muscular mechanical hyperalgesia (withdrawal threshold to muscle pressure) ([2]; metamizol 2 mg/kg i.p.): complete reversal

CC(C)C[C@H](CN)CC(=O)O [pregabalin]
MPE (maximal possible effect) on biceps muscle grip strength, FIG. 4 ([1]; 100 mg/kg i.p.): significantly different from vehicle
reversal of TNF-induced reduction of grip strength ([1]; 100 mg/kg i.p.): significant reversal; also recorded: improved grip strength
MPE (maximal possible effect) on muscle pressure hyperalgesia, FIG. 2 [2, 7]: significantly different from vehicle
reversal of muscular mechanical hyperalgesia (withdrawal threshold to muscle pressure) [2, 7]: significant reversal
full reversal of the muscle hyperalgesia ([2]; gabapentin 100 mg/kg i.p.): Neither pregabalin nor gabapentin led to a full reversal
